# Tested on: CCL17 secretion in peripheral human whole blood
# Experiment: Human Whole Blood (HWB) CCL17 TR-FRET Assay (IL-13 stimulated CCL17 secretion)
# Type: cell-based
# Settings: Homo sapiens, 48 h, human whole blood, IL-13 stimulated
# Description: The IC50 (half-maximal concentration required for inhibition) of compounds for the inhibition of CCL17 secretion in peripheral human whole blood, stimulated through the IL-13-IL-13 receptor/IL-4 receptor pathway was evaluated with a TR-FRET sandwich ELISA CCL17 (TARC) Assay Kit (Bioauxilium).
# Test compounds (solubilized and serially diluted in DMSO, in an 11 point, 3-fold dilution series in duplicate) were spotted, 80 nL per well, into a 384 well v-bottom polypropylene plate. Human whole blood was collected from a peripheral vein, 714 units of sodium heparin was added for every 50 mL of blood collected. Sixty μL per well of blood was added to the compound plate. The blood plate was incubated for two hours at 37° C. After two hours, CCL17 production was stimulated with the addition of 20 μL per well of IL13 (R&D Systems) in HBSS with calcium and magnesium, with a final concentration of 10 ng/mL IL13. The plate containing blood, compound, and IL-13 was incubated at 37° C. for 48 hours, to allow for CCL17 production. After 48 hours, the plate was centrifuged at 1,500 revolutions per minute (RPM) for 7 minutes, with no braking. The CCL17 TR-FRET Assay Kit detection reagent was prepared according to kit instructions and 4 μL per well of the antibody cocktail was added to a 384-well white low volume non-binding coated plate (Corning). Sixteen μL of serum from the centrifuged blood plate was transferred to the detection plate containing the TR-FRET antibody cocktail. The plate was centrifuged briefly, then covered and incubated 16 hours at room temperature. The plate was then read on an EnVision 2105 multilabel reader (PerkinElmer) with settings for TR-FRET Ratio=10,000×(fluorescence intensity 665 nm/fluorescence intensity 615 nm).
row,IC50,Compound
1,6 nM,"CC(n1nc(C(=O)NCc2ccc(NC(=O)N(C)C)cc2)c2c1[C@@H](C)CN(c1ccc(C(=O)N(C)C)cn1)C2)C(F)(F)F (mixture of isomers) [Example 262, (S)-5-(5-(dimethylcarbamoyl)pyridin-2-yl)-N-(4-(3,3-dimethylureido)benzyl)-7-methyl-1-((RS)-1,1,1-trifluoropropan-2-yl)-4,5,6,7-tetrahydro-1H-pyrazolo[4,3-c]pyridine-3-carboxamide]"
2,8 nM,"COCC(C)n1nc(C(=O)NCc2ccc(NC(=O)N(C)C)cc2)c2c1[C@@H](C)CN(c1ccc(C(=O)N(C)C)cn1)C2 (mixture of isomers) [Example 344, (S)-5-(5-(dimethylcarbamoyl)pyridin-2-yl)-N-(4-(3,3-dimethylureido)benzyl)-1-((RS)-1-methoxypropan-2-yl)-7-methyl-4,5,6,7-tetrahydro-1H-pyrazolo[4,3-c]pyridine-3-carboxamide]"

# Molecular target: T1, STAT6 (Homo sapiens, UniProt P42226)
# T1 construct: stably transfected HaCaT keratinocyte cell line, which expresses NanoLuc luciferase reporter gene under the transcriptional control of the STAT6 responsive promoter; endogenous in cells; host or cells: HaCaT keratinocyte reporter cell line (stably transfected with a NanoLuc reporter)
# T1 sequence (P42226 1-847): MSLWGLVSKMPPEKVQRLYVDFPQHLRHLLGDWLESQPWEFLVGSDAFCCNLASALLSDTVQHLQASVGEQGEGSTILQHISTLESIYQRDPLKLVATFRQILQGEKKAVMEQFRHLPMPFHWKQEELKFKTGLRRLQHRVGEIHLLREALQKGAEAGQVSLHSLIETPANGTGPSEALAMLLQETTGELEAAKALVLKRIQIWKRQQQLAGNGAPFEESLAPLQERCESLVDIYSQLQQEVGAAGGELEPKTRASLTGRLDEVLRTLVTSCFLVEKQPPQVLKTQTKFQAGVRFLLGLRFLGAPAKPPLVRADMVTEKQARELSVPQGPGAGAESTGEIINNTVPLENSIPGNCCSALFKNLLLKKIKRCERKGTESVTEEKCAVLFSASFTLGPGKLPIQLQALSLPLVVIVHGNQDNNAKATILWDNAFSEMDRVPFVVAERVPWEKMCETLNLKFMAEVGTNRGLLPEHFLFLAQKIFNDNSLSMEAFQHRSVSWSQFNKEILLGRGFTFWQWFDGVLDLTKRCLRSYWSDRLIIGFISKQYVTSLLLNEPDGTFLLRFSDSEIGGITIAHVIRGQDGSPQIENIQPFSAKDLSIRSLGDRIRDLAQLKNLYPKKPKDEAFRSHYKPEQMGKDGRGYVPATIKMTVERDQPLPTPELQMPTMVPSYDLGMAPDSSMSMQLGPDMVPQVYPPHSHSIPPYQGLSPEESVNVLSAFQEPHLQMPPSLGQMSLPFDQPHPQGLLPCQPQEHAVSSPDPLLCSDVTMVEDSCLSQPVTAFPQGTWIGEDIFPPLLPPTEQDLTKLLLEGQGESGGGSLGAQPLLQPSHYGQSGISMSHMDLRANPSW
# Experiment: STAT6 Reporter Luciferase Assay (IL-13 stimulated HaCaT keratinocyte NanoLuc reporter cells)
# Type: cell-based
# Settings: IL-13 stimulated HaCaT STAT6 NanoLuc reporter cells; read-out: Reporter EC50
# Method in brief: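 Stably transfected HaCaT cells carrying NanoLuc under the STAT6-responsive IL-13Ra2 promoter were pre-treated with compound (11-point, 4-fold series, duplicate) for 2 h at 37 °C, then stimulated with 0.12 nM IL-13 for 4 h. Nano-Glo luminescence was read after 15 min.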
row,EC50,Compound
1,1 nM,"CC(n1nc(C(=O)NCc2ccc(NC(=O)N(C)C)cc2)c2c1[C@@H](C)CN(c1ccc(C(=O)N(C)C)cn1)C2)C(F)(F)F (mixture of isomers) [Example 262, (S)-5-(5-(dimethylcarbamoyl)pyridin-2-yl)-N-(4-(3,3-dimethylureido)benzyl)-7-methyl-1-((RS)-1,1,1-trifluoropropan-2-yl)-4,5,6,7-tetrahydro-1H-pyrazolo[4,3-c]pyridine-3-carboxamide]"
2,1 nM,"COCC(C)n1nc(C(=O)NCc2ccc(NC(=O)N(C)C)cc2)c2c1[C@@H](C)CN(c1ccc(C(=O)N(C)C)cn1)C2 (mixture of isomers) [Example 344, (S)-5-(5-(dimethylcarbamoyl)pyridin-2-yl)-N-(4-(3,3-dimethylureido)benzyl)-1-((RS)-1-methoxypropan-2-yl)-7-methyl-4,5,6,7-tetrahydro-1H-pyrazolo[4,3-c]pyridine-3-carboxamide]"
3,1 nM,"CCN1CCN(C(=O)Nc2ccc(CNC(=O)c3nn(C(C)C)c4c3CN(c3ccc(C(=O)N(C)C)cc3)C[C@@H]4C)cc2)CC1 [Example 745, (S)-5-(4-(dimethylcarbamoyl)phenyl)-N-(4-(4-ethylpiperazine-1-carboxamido)benzyl)-1-isopropyl-7-methyl-4,5,6,7-tetrahydro-1H-pyrazolo[4,3-c]pyridine-3-carboxamide]"
4,1 nM,"CC(C)n1nc(C(=O)NCc2ccc(NC(=O)N3CC(N(C)C)C3)cc2)c2c1[C@@H](C)CN(c1ccc(C(=O)N(C)C)cc1)C2 [Example 746, (S)-N-(4-(3-(dimethylamino)azetidine-1-carboxamido)benzyl)-5-(4-(dimethylcarbamoyl)phenyl)-1-isopropyl-7-methyl-4,5,6,7-tetrahydro-1H-pyrazolo[4,3-c]pyridine-3-carboxamide]"
5,1 nM,"CC(C)n1nc(C(=O)NCc2ccc(NC(=O)N3CC[C@H](N(C)C)C3)cc2)c2c1[C@@H](C)CN(c1ccc(C(=O)N(C)C)cc1)C2 [Example 747, (S)-N-(4-((S)-3-(dimethylamino)pyrrolidine-1-carboxamido)benzyl)-5-(4-(dimethylcarbamoyl)phenyl)-1-isopropyl-7-methyl-4,5,6,7-tetrahydro-1H-pyrazolo[4,3-c]pyridine-3-carboxamide]"
6,1 nM,"CC(C)n1nc(C(=O)NCc2ccc(NC(=O)N3CC(C)(N(C)C)C3)cc2)c2c1[C@@H](C)CN(c1ccc(C(=O)N(C)C)cc1)C2 [Example 748, (S)-N-(4-(3-(dimethylamino)-3-methylazetidine-1-carboxamido)benzyl)-5-(4-(dimethylcarbamoyl)phenyl)-1-isopropyl-7-methyl-4,5,6,7-tetrahydro-1H-pyrazolo[4,3-c]pyridine-3-carboxamide]"
7,0.4 nM,"CC(C)n1nc(C(=O)NCc2ccc(NC(=O)N3CCC4(CCN(C)CC4)CC3)cc2)c2c1[C@@H](C)CN(c1ccc(C(=O)N(C)C)cc1)C2 [Example 749, (S)-N-(4-((5-(4-(dimethylcarbamoyl)phenyl)-1-isopropyl-7-methyl-4,5,6,7-tetrahydro-1H-pyrazolo[4,3-c]pyridine-3-carboxamido)methyl)phenyl)-9-methyl-3,9-diazaspiro[5.5]undecane-3-carboxamide]"
8,1 nM,"CC(C)n1nc(C(=O)NCc2ccc(NC(=O)N3CC[C@@H](N(C)C)C3)cc2)c2c1[C@@H](C)CN(c1ccc(C(=O)N(C)C)cc1)C2 [Example 750, (S)-N-(4-((R)-3-(dimethylamino)pyrrolidine-1-carboxamido)benzyl)-5-(4-(dimethylcarbamoyl)phenyl)-1-isopropyl-7-methyl-4,5,6,7-tetrahydro-1H-pyrazolo[4,3-c]pyridine-3-carboxamide]"
9,9 nM,"CC(C)n1nc(C(=O)NCc2ccc(NC(=O)N3CC4(CN(C)C4)C3)cc2)c2c1[C@@H](C)CN(c1ccc(C(=O)N(C)C)cc1)C2 [Example 751, (S)-5-(4-(dimethylcarbamoyl)phenyl)-1-isopropyl-7-methyl-N-(4-(6-methyl-2,6-diazaspiro[3.3]heptane-2-carboxamido)benzyl)-4,5,6,7-tetrahydro-1H-pyrazolo[4,3-c]pyridine-3-carboxamide]"
10,2 nM,"CC(C)n1nc(C(=O)NCc2ccc(NC(=O)N3CCC(C)(N(C)C)C3)cc2)c2c1[C@@H](C)CN(c1ccc(C(=O)N(C)C)cc1)C2 (stereo partly drawn) [Example 752, (7S)-N-(4-(3-(dimethylamino)-3-methylpyrrolidine-1-carboxamido)benzyl)-5-(4-(dimethylcarbamoyl)phenyl)-1-isopropyl-7-methyl-4,5,6,7-tetrahydro-1H-pyrazolo[4,3-c]pyridine-3-carboxamide]"
11,0.5 nM,"CC(C)n1nc(C(=O)NCc2ccc(NC(=O)N3CCC4(CCN(C)C4)CC3)cc2)c2c1[C@@H](C)CN(c1ccc(C(=O)N(C)C)cc1)C2 [Example 753, (S)-N-(4-((5-(4-(dimethylcarbamoyl)phenyl)-1-isopropyl-7-methyl-4,5,6,7-tetrahydro-1H-pyrazolo[4,3-c]pyridine-3-carboxamido)methyl)phenyl)-2-methyl-2,8-diazaspiro[4.5]decane-8-carboxamide]"
12,2 nM,"CC(C)n1nc(C(=O)NCc2ccc(NC(=O)N3CCC[C@@H](N(C)C)C3)cc2)c2c1[C@@H](C)CN(c1ccc(C(=O)N(C)C)cc1)C2 [Example 754, (S)-N-(4-((R)-3-(dimethylamino)piperidine-1-carboxamido)benzyl)-5-(4-(dimethylcarbamoyl)phenyl)-1-isopropyl-7-methyl-4,5,6,7-tetrahydro-1H-pyrazolo[4,3-c]pyridine-3-carboxamide]"
13,2 nM,"CC(C)n1nc(C(=O)NCc2ccc(NC(=O)N3CCC[C@H](N(C)C)C3)cc2)c2c1[C@@H](C)CN(c1ccc(C(=O)N(C)C)cc1)C2 [Example 755, (S)-N-(4-((S)-3-(dimethylamino)piperidine-1-carboxamido)benzyl)-5-(4-(dimethylcarbamoyl)phenyl)-1-isopropyl-7-methyl-4,5,6,7-tetrahydro-1H-pyrazolo[4,3-c]pyridine-3-carboxamide]"
14,1 nM,"CC(C)n1nc(C(=O)NCc2ccc(NC(=O)N3CC[C@H](CN(C)C)C3)cc2)c2c1[C@@H](C)CN(c1ccc(C(=O)N(C)C)cc1)C2 [Example 756, (S)-N-(4-((R)-3-((dimethylamino)methyl)pyrrolidine-1-carboxamido)benzyl)-5-(4-(dimethylcarbamoyl)phenyl)-1-isopropyl-7-methyl-4,5,6,7-tetrahydro-1H-pyrazolo[4,3-c]pyridine-3-carboxamide]"
15,0.3 nM,"CC(C)n1nc(C(=O)NCc2ccc(NC(=O)N3CCC4(CCCN(C)C4)CC3)cc2)c2c1[C@@H](C)CN(c1ccc(C(=O)N(C)C)cc1)C2 [Example 757, (S)-N-(4-((5-(4-(dimethylcarbamoyl)phenyl)-1-isopropyl-7-methyl-4,5,6,7-tetrahydro-1H-pyrazolo[4,3-c]pyridine-3-carboxamido)methyl)phenyl)-2-methyl-2,9-diazaspiro[5.5]undecane-9-carboxamide]"

# Source: patent publication US20250320213A1, “Nitrogen-Containing Heterocyclic Compounds” (Pfizer Inc., priority 2024, published 2025)
